{"source": "ChEMBL document CHEMBL5528053", "about": "“Discovery of Novel Isoquinoline Analogues as Dual Tubulin Polymerization/V-ATPase Inhibitors with Immunogenic Cell Death Induction” (J Med Chem, 2024)", "key": {"PC-3 [1]": {"test_system": "PC-3", "assay": "Upregulation of detyrosinated-alpha tubulin expression in human PC-3 cells incubated for 24 hrs by Western blot analysis", "type": "functional, cell-based", "settings": "dose 50-200 nM"}, "PC-3 [2]": {"test_system": "PC-3", "assay": "Inhibition of V-ATPase activity in human PC-3 cells at 100 nM measured after 24 hrs by colorimetric assay relative to control", "type": "cell-based"}, "PC-3 [3]": {"test_system": "PC-3", "assay": "Inhibition of V-ATPase activity in human PC-3 cells at 800 nM measured after 24 hrs by colorimetric assay relative to control", "type": "cell-based"}, "PC-3 [4]": {"test_system": "PC-3", "assay": "Inhibition of V-ATPase activity in human PC-3 cells measured after 24 hrs by colorimetric assay", "type": "cell-based", "settings": "dose 50-800 nM"}, "PC-3 [5]": {"test_system": "PC-3", "assay": "Inhibition of V-ATPase activity in lysosomes of human PC-3 cells assessed as decrease in fluorescence at 50 to 200 nM incubated for 24 hrs by Lyso tracker red staining based inverted fluorescent microscopic analysis", "type": "subcellular", "settings": "Lysosome, dose 50-200 nM"}, "PC-3 [6]": {"test_system": "PC-3", "assay": "Inhibition of V-ATPase activity in lysosomes of human PC-3 cells assessed as decrease in fluorescence at 50 to 200 nM incubated for 24 hrs by acridine orange staining based inverted fluorescent microscopic analysis", "type": "subcellular", "settings": "Lysosome, dose 50-200 nM"}, "Cell membrane": {"test_system": "Cell membrane", "assay": "Induction of mitochondrial membrane potential loss in human PC-3 cells assessed as increase in green fluorescence at 50 to 200 nM incubated for 24 hrs by JC-1 staining based confocal microscopy analysis", "settings": "dose 50-200 nM"}, "PC-3 [7]": {"test_system": "PC-3", "assay": "Induction of apoptosis in human PC-3 cells assessed as early apoptotic cells at 50 nM measured after 24 hrs by annexin V-FITC and PI staining based flow cytometry analysis (reference value: 1.03%)", "type": "functional"}, "PC-3 [8]": {"test_system": "PC-3", "assay": "Induction of apoptosis in human PC-3 cells assessed as early apoptotic cells at 200 nM measured after 24 hrs by annexin V-FITC and PI staining based flow cytometry analysis (reference value: 1.03%)", "type": "functional"}, "PC-3 [9]": {"test_system": "PC-3", "assay": "Induction of apoptosis in human PC-3 cells assessed as increase in bax level at 50 to 200 nM incubated for 24 hrs by Western blot analysis", "type": "functional, cell-based", "settings": "dose 50-200 nM"}, "PC-3 [10]": {"test_system": "PC-3", "assay": "Induction of apoptosis in human PC-3 cells assessed as upregulation of cleaved caspase-3 level at 50 to 200 nM incubated for 24 hrs by Western blot analysis", "type": "functional, cell-based", "settings": "dose 50-200 nM"}, "PC-3 [11]": {"test_system": "PC-3", "assay": "Induction of apoptosis in human PC-3 cells assessed as increase in ADP-ribose level at 50 to 200 nM incubated for 24 hrs by Western blot analysis", "type": "functional, cell-based", "settings": "dose 50-200 nM"}, "[12]": {"assay": "Antitumor activity against mouse RM1 cells xenografted in immunocompetent […] mouse model assessed as tumor growth inhibition at 5 mg/kg, iv measured every two days for 14 days relative to control", "type": "functional", "settings": "RM1, 336 h, time 14 day, read-out: TGI"}, "[13]": {"assay": "Antitumor activity against mouse RM1 cells xenografted in immunocompetent […] mouse model assessed as tumor growth inhibition at 10 mg/kg, iv measured every two days for 14 days relative to control", "type": "functional", "settings": "RM1, 336 h, time 14 day, read-out: TGI"}, "[14]": {"assay": "Toxicity in ICR mouse assessed as effect on lymphocytes at 10 mg/kg, ip measured for 14 days", "type": "organism-based", "settings": "in vivo, 336 h, time 14 day"}, "PC-3 [15]": {"test_system": "PC-3", "assay": "Induction of endoplasmic reticulum (ER) stress in human PC-3 cells assessed as upregulation of CHOP phosphorylation level at 50 to 200 nM measured after 24 hrs by Western blot analysis", "type": "functional, cell-based", "settings": "dose 50-200 nM"}, "PC-3 [16]": {"test_system": "PC-3", "assay": "Inhibition of autophagy in human PC-3 cells assessed as decrease in colocalization region at 50 to 200 uM measured after 3 hrs by immunofluorescence imaging based analysis", "type": "functional, cell-based", "settings": "dose 50-200 µM"}, "PC-3 [17]": {"test_system": "PC-3", "assay": "Induction of immunogenic cell death in human PC-3 cells assessed as decrease in HMGB1 content in tumor cells at 50 to 200 nM", "type": "functional, cell-based", "settings": "dose 50-200 nM"}, "PC-3 [18]": {"test_system": "PC-3", "assay": "Induction of immunogenic cell death in human PC-3 cells assessed as increase in CRT translocation to cell surface at 200 nM measured after 12 hrs in presence of NAC by DAPI staining based analysis", "type": "functional"}, "RM1 [19]": {"test_system": "RM1", "assay": "Anticancer activity against mouse RM1 cells assessed as increase in CRT expression at 400 nM measured after 24 hrs by flow cytometry analysis", "type": "functional, cell-based"}, "[20]": {"assay": "Anticancer activity against mouse RM1 cells assessed as increase in mean fluorescence intensity at 400 nM measured after 24 hrs by flow cytometry analysis (reference value: 7.40+/-3.96 )", "type": "functional"}, "[21]": {"assay": "Antitumor immunity against mouse RM1 cells homografted in C57BL/6 mouse model assessed as increase in tumor infiltrating CD3+CD8+T cells (CTLs) at 5 mg/kg, iv administered every two days for 14 days by flow cytometry analysis (reference value: 0.89%)", "type": "functional", "settings": "time 14 day"}, "RM1 [22]": {"test_system": "RM1", "assay": "Antitumor immunity against mouse RM1 cells homografted in C57BL/6 mouse model assessed as increase in tumor infiltrating helper T lymphocytes in spleen at 5 to 10 mg/kg, iv administered every two days for 14 days by flow cytometry analysis", "type": "functional, organism-based", "settings": "dose 5-10 mg/kg, time 14.0 day"}}, "note": "Active and inactive are the calls of the source. The rule behind the calls is not given here."}
{"smiles": "COc1cc(-c2nc(C(N)=O)cc3cc4c(cc23)OCCO4)cc(Br)c1OC", "values": [{"measurement": "Activity", "setting": "PC-3 [1]", "result": "Dose-Dependent Effect"}, {"measurement": "inhibition", "setting": "PC-3 [2]", "result": 26.2, "unit": "%"}, {"measurement": "inhibition", "setting": "PC-3 [3]", "result": 77.4, "unit": "%"}, {"measurement": "inhibition", "setting": "PC-3 [4]", "result": "Dose-Dependent Effect"}, {"measurement": "inhibition", "setting": "PC-3 [5]", "result": "Active"}, {"measurement": "inhibition", "setting": "PC-3 [6]", "result": "Active"}, {"measurement": "Activity", "setting": "Cell membrane", "result": "Active"}, {"measurement": "Activity", "setting": "PC-3 [7]", "result": 1.93, "unit": "%"}, {"measurement": "Activity", "setting": "PC-3 [8]", "result": 22.7, "unit": "%"}, {"measurement": "Activity", "setting": "PC-3 [9]", "result": "Active"}, {"measurement": "Activity", "setting": "PC-3 [10]", "result": "Active"}, {"measurement": "Activity", "setting": "PC-3 [11]", "result": "Active"}, {"measurement": "inhibition in vivo at 5 mg/kg", "setting": "[12]", "result": 54.6, "unit": "%"}, {"measurement": "inhibition in vivo at 10 mg/kg", "setting": "[13]", "result": 70.2, "unit": "%"}, {"measurement": "Activity", "setting": "[14]", "result": "Non-Toxic"}, {"measurement": "Activity", "setting": "PC-3 [15]", "result": "Active"}, {"measurement": "inhibition", "setting": "PC-3 [16]", "result": "Active"}, {"measurement": "Activity", "setting": "PC-3 [17]", "result": "Active"}, {"measurement": "Activity", "setting": "PC-3 [18]", "result": "inactive"}, {"measurement": "Activity", "setting": "RM1 [19]", "result": "Active"}, {"measurement": "Flu intensity", "setting": "[20]", "result": 151.3}, {"measurement": "Activity", "setting": "[21]", "result": 1.59, "unit": "%"}, {"measurement": "Activity", "setting": "RM1 [22]", "result": "Active"}]}
